Experiments:
Assay in all cases: relative viability (nuclei count vs DMSO), 5 days (fraction); higher = more cells survive
Adavosertib + Tozasertib = compound: C=CCn1c(=O)c2cnc(Nc3ccc(N4CCN(C)CC4)cc3)nc2n1-c1cccc(C(C)(C)O)n1 [Adavosertib] + Cc1cc(Nc2cc(N3CCN(C)CC3)nc(Sc3ccc(NC(=O)C4CC4)cc3)n2)n[nH]1 [Tozasertib] (partner 0.1 µM)
Summary of the method: (§1)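 Cells from lung cancer lines were seeded into 1536-well plates and, one day later, dosed by pin tool. Treatments were either a single drug or a fixed dose of an anchor drug with five library-drug doses (not always all listed) in √10 steps. After 5 days, nuclei were stained in a one-step fixation (final 0.05% Triton X-100, 1% formaldehyde, 1 ug/ml Hoechst) and counted on 4× images, and relative viability is the treated-to-vehicle nuclei ratio, as the median of duplicate plates.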

Nelarabine + Linsitinib = compound: COc1nc(N)nc2c1ncn2[C@@H]1O[C@H](CO)[C@@H](O)[C@@H]1O [Nelarabine] + C[C@]1(O)C[C@@H](c2nc(-c3ccc4ccc(-c5ccccc5)nc4c3)c3c(N)nccn32)C1 [Linsitinib] (partner 1 µM)
Summary of the method: as §1

Nelarabine + Navitoclax = compound: COc1nc(N)nc2c1ncn2[C@@H]1O[C@H](CO)[C@@H](O)[C@@H]1O [Nelarabine] + CC1(C)CCC(c2ccc(Cl)cc2)=C(CN2CCN(c3ccc(C(=O)NS(=O)(=O)c4ccc(N[C@H](CCN5CCOCC5)CSc5ccccc5)c(S(=O)(=O)C(F)(F)F)c4)cc3)CC2)C1 [Navitoclax] (partner 0.5 µM)
Summary of the method: as §1

Nelarabine + Palbociclib = compound: COc1nc(N)nc2c1ncn2[C@@H]1O[C@H](CO)[C@@H](O)[C@@H]1O [Nelarabine] + CC(=O)c1c(C)c2cnc(Nc3ccc(N4CCNCC4)cn3)nc2n(C2CCCC2)c1=O [Palbociclib] (partner 0.5 µM)
Summary of the method: as §1

| Cell Line | relative viability (Adavosertib + Tozasertib; first compound 0.01 µM) | relative viability (Adavosertib + Tozasertib; first compound 0.03162 µM) | relative viability (Adavosertib + Tozasertib; first compound 0.1 µM) | relative viability (Adavosertib + Tozasertib; first compound 0.3162 µM) | relative viability (Nelarabine + Linsitinib; first compound 0.01 µM) | relative viability (Nelarabine + Linsitinib; first compound 0.03162 µM) | relative viability (Nelarabine + Linsitinib; first compound 0.1 µM) | relative viability (Nelarabine + Linsitinib; first compound 0.3162 µM) | relative viability (Nelarabine + Linsitinib; first compound 1 µM) | relative viability (Nelarabine + Navitoclax; first compound 0.01 µM) | relative viability (Nelarabine + Navitoclax; first compound 0.03162 µM) | relative viability (Nelarabine + Navitoclax; first compound 0.1 µM) | relative viability (Nelarabine + Navitoclax; first compound 0.3162 µM) | relative viability (Nelarabine + Navitoclax; first compound 1 µM) | relative viability (Nelarabine + Palbociclib; first compound 0.01 µM) | relative viability (Nelarabine + Palbociclib; first compound 0.03162 µM) | relative viability (Nelarabine + Palbociclib; first compound 0.1 µM) | relative viability (Nelarabine + Palbociclib; first compound 0.3162 µM) | relative viability (Nelarabine + Palbociclib; first compound 1 µM) |
| --- | --- | --- | --- | --- | --- | --- | --- | --- | --- | --- | --- | --- | --- | --- | --- | --- | --- | --- | --- |
| NCI-H1915 | 0.433 | 0.441 | 0.509 | 0.524 | 1.15 | 1.08 | 1.06 | 1.1 | 1.1 | 0.799 | 0.687 | 0.767 | 0.805 | 0.796 | 0.598 | 0.531 | 0.533 | 0.522 | 0.525 |
| ABC-1 | 0.208 | 0.161 | 0.166 | 0.145 | 0.955 | 1.19 | 0.83 | 0.809 | 0.723 | – | – | – | – | – | 0.624 | 0.553 | 0.762 | 0.625 | 0.692 |
| NCI-H358 | 0.104 | 0.0953 | 0.102 | 0.0852 | 0.891 | 0.613 | 0.694 | 0.865 | 0.74 | – | – | – | – | – | 0.121 | 0.136 | 0.129 | 0.127 | 0.139 |
| HCC-366 | 0.137 | 0.132 | 0.145 | 0.169 | 1.21 | 0.427 | 0.551 | 0.785 | 0.769 | 1.55 | 1.03 | 1.22 | 1.2 | 1 | 0.632 | 0.272 | 0.473 | 0.453 | 0.416 |
| EBC-1 | – | – | – | – | 0.99 | 1.13 | 0.929 | 0.91 | 0.939 | 0.403 | 0.261 | 0.375 | 0.432 | 0.381 | – | – | – | – | – |
| NCI-H1650 | 0.415 | 0.464 | 0.563 | 0.299 | – | – | – | – | – | 1.32 | 1.36 | 1.28 | 1.36 | 1.23 | 0.255 | 0.317 | 0.337 | 0.32 | 0.266 |
| NCI-H1395 | 0.757 | 0.822 | 0.853 | 0.733 | 1.1 | 1.15 | 1.17 | 0.974 | 1.2 | 1.18 | 1.16 | 1.28 | 1.19 | 1.17 | 0.543 | 0.559 | 0.69 | 0.566 | 0.622 |
| SW 900 | – | 0.533 | 0.62 | 0.538 | – | – | – | – | – | – | – | – | – | – | 0.567 | 0.604 | 0.504 | 0.6 | 0.593 |
| NCI-H1666 | 0.642 | 0.568 | 0.678 | 0.694 | 0.911 | 0.766 | 0.906 | 0.797 | 0.788 | 1.08 | 1.08 | 0.807 | 1.07 | 0.937 | 0.607 | 0.648 | 0.677 | 0.661 | 0.59 |
| COR-L23 | 0.24 | 0.236 | 0.23 | 0.162 | 1.12 | 0.996 | 1 | 0.911 | 1.06 | 1.4 | 1.14 | 1.09 | 1.04 | 0.977 | 0.4 | 0.243 | 0.26 | 0.267 | 0.282 |
| ChaGo-K-1 | 0.228 | 0.243 | 0.229 | 0.228 | – | – | – | – | – | 1.03 | 1.02 | 1.48 | 0.936 | 1.07 | 0.939 | 0.815 | 0.964 | 0.989 | 0.876 |
| SW 1573 | 0.221 | 0.234 | 0.192 | 0.17 | 0.82 | 0.646 | 0.848 | 0.799 | 0.73 | 1.14 | 1.26 | 1.02 | 0.98 | 1.03 | 0.465 | 0.382 | 0.41 | 0.399 | 0.338 |
| NCI-H23 | 0.326 | 0.321 | 0.283 | 0.192 | 0.749 | 0.671 | 0.613 | 0.623 | 0.622 | 0.804 | 0.821 | 0.783 | 0.854 | 0.763 | 0.54 | 0.51 | 0.43 | 0.503 | 0.634 |
| NCI-H1299 | – | – | – | – | 1.19 | 1.02 | 1.05 | 1.04 | 0.963 | 1.09 | 1.06 | 1.1 | 1.07 | 1.08 | – | – | – | – | – |
| NCI-H1944 | 0.227 | 0.241 | 0.23 | 0.269 | 1.28 | 1.16 | 1.38 | 1.21 | 1.08 | 1.02 | 0.964 | 1.01 | 0.937 | 0.968 | 0.367 | 0.267 | 0.343 | 0.362 | 0.316 |
| PC-3 [JPC-3] | 0.891 | 0.874 | 0.925 | 0.897 | 1.05 | 0.958 | 0.943 | 0.942 | 0.975 | 1.04 | 0.732 | 0.748 | 0.913 | 0.926 | 0.562 | 0.544 | 0.524 | 0.526 | 0.533 |
| NCI-H2126 | 0.808 | 0.834 | 0.863 | 0.924 | 0.71 | 0.824 | 0.754 | 0.711 | 0.689 | 0.869 | 0.748 | 0.786 | 0.816 | 0.743 | 0.347 | 0.352 | 0.326 | 0.353 | 0.403 |
| HCC-827 | 0.402 | 0.415 | 0.46 | 0.437 | 0.922 | 0.826 | 0.877 | 0.772 | 0.666 | 1.02 | 0.886 | 0.91 | 0.797 | 0.705 | 0.537 | 0.504 | 0.454 | 0.378 | 0.397 |
| H3255 | 0.63 | 0.721 | 0.421 | 0.559 | 1.31 | 1.09 | 1.12 | 0.885 | 0.957 | 0.59 | 0.486 | 0.625 | 0.6 | 0.622 | 0.327 | 0.292 | 0.311 | 0.315 | 0.355 |

Source: the supplement of paper PMC10307832
